Laboratory results: ChEMBL document CHEMBL5634174, “Biological evaluation of sulfonate and sulfate analogues of lithocholic acid: A bioisosterism-guided approach towards the discovery of potential sialyltransferase inhibitors for antimetastatic study” (Bioorg Med Chem Lett, 2024)
Calls of active or inactive are those of the source. No cut-off for these calls is given here.

What was measured:
[1] = target: T1, CMP-N-acetylneuraminate-beta-galactosamide-alpha-2,3-sialyltransferase 1 (Homo sapiens, UniProt Q11201); assay: Inhibition of ST3GAL1 (unknown origin)
T1 sequence (Q11201 whole entry): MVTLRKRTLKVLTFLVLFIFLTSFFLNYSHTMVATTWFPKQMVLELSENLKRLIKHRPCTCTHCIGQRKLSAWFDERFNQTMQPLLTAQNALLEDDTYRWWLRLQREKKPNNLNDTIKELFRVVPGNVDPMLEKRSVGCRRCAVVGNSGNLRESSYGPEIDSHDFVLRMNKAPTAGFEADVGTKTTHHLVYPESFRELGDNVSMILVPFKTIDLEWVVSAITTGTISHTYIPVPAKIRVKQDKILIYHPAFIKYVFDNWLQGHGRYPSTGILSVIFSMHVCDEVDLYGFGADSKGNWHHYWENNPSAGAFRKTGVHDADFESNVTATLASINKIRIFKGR

[2] = target: T2, CMP-N-acetylneuraminate-beta-1,4-galactoside alpha-2,3-sialyltransferase (Homo sapiens, UniProt Q11203); assay: Inhibition of ST3GAL3 (unknown origin)
T2 sequence (Q11203 whole entry): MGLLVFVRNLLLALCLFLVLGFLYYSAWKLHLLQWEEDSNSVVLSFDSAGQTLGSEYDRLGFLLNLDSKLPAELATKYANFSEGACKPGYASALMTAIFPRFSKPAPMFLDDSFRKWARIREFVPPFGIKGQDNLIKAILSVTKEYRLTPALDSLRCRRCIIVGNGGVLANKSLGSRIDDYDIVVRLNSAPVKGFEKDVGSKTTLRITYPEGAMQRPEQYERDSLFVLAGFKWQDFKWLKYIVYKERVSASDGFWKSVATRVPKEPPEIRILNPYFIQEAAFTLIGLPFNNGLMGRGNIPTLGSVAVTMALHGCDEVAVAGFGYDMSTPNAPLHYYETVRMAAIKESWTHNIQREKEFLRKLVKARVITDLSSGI

[3] = target: T3, Beta-galactoside alpha-2,6-sialyltransferase 1 (Homo sapiens, UniProt P15907); assay: Inhibition of ST6GAL1 (unknown origin)
T3 sequence (P15907 whole entry): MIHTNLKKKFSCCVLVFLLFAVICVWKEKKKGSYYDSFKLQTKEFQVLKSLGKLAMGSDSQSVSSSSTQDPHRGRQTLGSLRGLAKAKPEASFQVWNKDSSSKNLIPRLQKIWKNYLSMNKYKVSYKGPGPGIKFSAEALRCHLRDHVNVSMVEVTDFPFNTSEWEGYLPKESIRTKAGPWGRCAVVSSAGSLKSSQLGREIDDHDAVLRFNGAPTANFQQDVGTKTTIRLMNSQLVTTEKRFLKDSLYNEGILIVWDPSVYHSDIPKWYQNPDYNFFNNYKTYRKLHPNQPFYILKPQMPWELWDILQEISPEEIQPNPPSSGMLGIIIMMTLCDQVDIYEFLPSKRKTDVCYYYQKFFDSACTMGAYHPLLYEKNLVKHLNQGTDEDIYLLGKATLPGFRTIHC

[4] = target: T4, Beta-galactoside alpha-2,6-sialyltransferase 1 (Homo sapiens) (UniProt P15907); assay: Inhibition of recombinant human N-terminal His tagged ST6GAL1 (44 to 406 residues) at 50 uM by UPLC-based assay relative to control
T4 sequence (whole entry): T3 sequence (P15907 whole entry)

[5] = target: T5, Sialyltransferase ST3Gal-I (Rattus norvegicus) (UniProt Q6H8N0); assay: Inhibition of rat ST3GAL1 at 1000 uM by UPLC-based assay relative to control
T5 sequence (whole entry): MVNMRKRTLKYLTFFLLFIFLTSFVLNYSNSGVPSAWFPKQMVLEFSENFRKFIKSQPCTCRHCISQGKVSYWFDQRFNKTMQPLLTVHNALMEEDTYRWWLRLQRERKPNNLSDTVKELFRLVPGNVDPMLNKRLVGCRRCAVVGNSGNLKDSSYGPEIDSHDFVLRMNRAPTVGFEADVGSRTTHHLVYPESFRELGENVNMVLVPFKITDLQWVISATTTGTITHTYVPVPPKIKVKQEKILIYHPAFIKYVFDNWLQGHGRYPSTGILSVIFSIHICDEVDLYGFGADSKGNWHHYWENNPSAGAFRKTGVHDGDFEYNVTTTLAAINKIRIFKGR

[6] = target: T6, Sialyltransferase ST3Gal-I (Rattus norvegicus, UniProt Q6H8N0); assay: Inhibition of rat ST3GAL1 by UPLC-based assay
T6 sequence (Q6H8N0 whole entry): T5 sequence (whole entry)

[7] = target: T3, Beta-galactoside alpha-2,6-sialyltransferase 1; assay: Inhibition of recombinant human N-terminal His tagged ST6GAL1 (44 to 406 residues) by UPLC-based assay
[8] = target: T5, Sialyltransferase ST3Gal-I (Rattus norvegicus); assay: Inhibition of rat ST3GAL1 at 500 uM by UPLC-based assay relative to control
[9] = test system: MDA-MB-231; assay: Antiproliferative activity against human MDA-MB-231 cells assessed as cell viability at 80 uM by MTT assay; assay type: functional, cell-based
[10] = target: T3, Beta-galactoside alpha-2,6-sialyltransferase 1; assay: Inhibition of human ST6GAL1 in the Galbeta1,4GlcNAcbeta-4,5-dimethoxy-2-nitrobenzyl
[11] = Selectivity index, ratio of IC50 for inhibition of rat ST3GAL1 to IC50 for inhibition of human ST6GAL1
[12] = test system: MDA-MB-231; assay: Antimigratory activity against human MDA-MB-231 cells at 60 uM incubated for 16 hrs by transwell migration assay; assay type: functional, cell-based
[13] = target: T7, CMP-N-acetylneuraminate-beta-galactosamide-alpha-2,3-sialyltransferase 1 (Mus musculus, UniProt P54751); assay: Inhibition of mouse brain ST3Gal1 expressed in COS-7 cells using CMP-[14C]NeuAc as substrate assessed as inhibition of constant incubated for 30 mins in presence of Galbeta1,3GalNAcOBzl by Lineweaver-Burk plot analysis
T7 sequence (P54751 whole entry): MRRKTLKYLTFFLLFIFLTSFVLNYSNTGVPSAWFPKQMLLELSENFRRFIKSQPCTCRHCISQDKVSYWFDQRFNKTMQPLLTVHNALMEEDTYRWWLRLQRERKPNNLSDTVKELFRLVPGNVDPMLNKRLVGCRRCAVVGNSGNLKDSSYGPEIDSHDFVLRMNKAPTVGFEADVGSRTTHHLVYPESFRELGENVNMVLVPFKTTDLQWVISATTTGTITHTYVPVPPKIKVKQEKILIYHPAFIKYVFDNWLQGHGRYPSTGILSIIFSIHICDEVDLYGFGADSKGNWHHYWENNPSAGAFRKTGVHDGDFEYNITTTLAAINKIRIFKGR

[14] = test system: MDA-MB-231; assay: Inhibition of cell invasion in human MDA-MB-231 cells assessed as reduction in cell adhesion to collagen IV at 60 uM incubated for 48 hrs; assay type: functional, cell-based
[15] = test system: MDA-MB-231; assay: Inhibition of cell invasion in human MDA-MB-231 cells assessed as reduction in cell adhesion at 60 uM after 48 hrs; assay type: functional, cell-based
[16] = test system: MDA-MB-231; assay: Inhibition of cell invasion in human MDA-MB-231 cells assessed as reduction in cell adhesion to fibronectin at 60 uM incubated for 24 hrs; assay type: functional, cell-based

Row | SMILES | inhibition [4] [%] | inhibition [5] [%] | IC50 [6] [µM] | IC50 [7] [µM] | inhibition [8] [%] | other results
1 | C[C@H](CCC(=O)O)[C@H]1CC[C@H]2[C@@H]3CC[C@@H]4C[C@H](OC(=O)[C@H](CC(=O)O)Nc5ccc([N+](=O)[O-])c6nonc56)CC[C@]4(C)[C@H]3CC[C@]12C | – | – | – | – | – | IC50 [1]: 13 µM; IC50 [2]: 0.88 µM; IC50 [3]: 1.5 µM
2 | C[C@H](CCC(=O)O)[C@H]1CC[C@H]2[C@@H]3CC[C@@H]4C[C@H](OS(=O)(=O)O)CC[C@]4(C)[C@H]3CC[C@]12C | 0 | 82 | 500 | > 50 | 23 | –
3 | C[C@H](CCC(=O)O)[C@H]1CC[C@H]2[C@@H]3[C@H](O)C[C@@H]4C[C@H](O)CC[C@]4(C)[C@H]3CC[C@]12C [CHENODIOL] | 0 | – | > 500 | > 50 | 6 | –
4 | C[C@H](CCCS(=O)(=O)O)[C@H]1CC[C@H]2[C@@H]3CC[C@@H]4C[C@H](OS(=O)(=O)O)CC[C@]4(C)[C@H]3CC[C@]12C | 0 | 100 | 500 | > 50 | 35 | Activity [9]: Active
5 | C[C@H](CCC(=O)O)[C@H]1CC[C@H]2[C@@H]3C[C@H](O)[C@@H]4C[C@H](O)CC[C@]4(C)[C@H]3CC[C@]12C [HYODEOXYCHOLIC_ACID] | 0 | – | > 500 | > 50 | 7 | –
6 | C[C@H](CCC(=O)O)[C@H]1CC[C@H]2[C@@H]3CC[C@@H]4C[C@H](OC(=O)[C@@H](N)CC(=O)O)CC[C@]4(C)[C@H]3CC[C@]12C | – | – | – | – | – | IC50 [10]: 17 µM
7 | C[C@H](CCCS(=O)(=O)O)[C@H]1CC[C@H]2[C@@H]3CC[C@@H]4C[C@H](O)CC[C@]4(C)[C@H]3CC[C@]12C | 100 | 40 | > 1000 | 18.5 | 5 | Ratio IC50 [11]: > 54; Activity [12]: Active
8 | C[C@@H]1O[C@@H](O[C@H]2[C@H](O[C@H]3[C@H](O[C@H]4CC[C@@]5(C)[C@@H](CC[C@]6(C)[C@@H]5CC=C5[C@@H]7CC(C)(C)C[C@@H](O)[C@]7(C)CC[C@]56C)[C@@]4(C)CO)O[C@H](C(=O)O)[C@@H](O)[C@@H]3O)O[C@H](CO)[C@H](O)[C@@H]2O)[C@H](O)[C@H](O)[C@H]1O [SOYASAPONIN I] | – | – | – | – | – | Ki [13]: 2.3 µM
9 | C[C@H](CCCOS(=O)(=O)O)[C@H]1CC[C@H]2[C@@H]3CC[C@@H]4C[C@H](OS(=O)(=O)O)CC[C@]4(C)[C@H]3CC[C@]12C | 100 | 100 | 402 | 21.5 | 90 | inhibition [14]: Active; inhibition [15]: inactive; Ratio IC50 [11]: 19; inhibition [16]: Active; Activity [12]: Active
10 | C[C@H](CCC(=O)NCCS(=O)(=O)O)[C@H]1CC[C@H]2[C@@H]3CC[C@@H]4C[C@H](O)CC[C@]4(C)[C@H]3C[C@H](O)[C@]12C [TAURODEOXYCHOLIC ACID] | 0 | – | > 500 | > 50 | 3 | –
11 | C[C@H](CCC(=O)O)[C@H]1CC[C@H]2[C@@H]3[C@@H](O)C[C@@H]4C[C@H](O)CC[C@]4(C)[C@H]3CC[C@]12C [URSODIOL] | 0 | – | > 500 | > 50 | 3 | –
12 | C[C@H](CCC(=O)O)[C@H]1CC[C@H]2[C@@H]3CC[C@@H]4C[C@H](O)CC[C@]4(C)[C@H]3CC[C@]12C [LITHOCHOLIC ACID] | 0 | 64 | 500 | > 50 | 53 | –
